± gives the standard deviation of the averaged measurements.
Legend:
Experiment in all cases: relative viability vs DMSO control (72 h) (fraction); higher = more viable cells
RD-ES = test system: RD-ES
Method in brief: (§1)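 Sarcoma cell lines in 384-well plates, seeded to reach 80–90% confluence, were given compound after 24 h and kept 72 h at 37 °C, 5% CO2, with 0.1% DMSO vehicle and a 5 µM positive control. Relative viability came from ATPLite as percent growth, averaged over up to triplicate wells. On the rescaled values, 1 equals full and 0 equals none.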

KHOS-240S = test system: KHOS-240S
Method in brief: as §1

SW982 = test system: SW982
Method in brief: as §1

HT1080 = test system: HT1080
Method in brief: as §1

SW1353 = test system: SW1353
Method in brief: as §1

O=C1CCc2c(Oc3ccc4c(c3)[C@@H]3[C@H](O4)[C@H]3c3nc4cc(C(F)(F)F)ccc4[nH]3)ccnc2N1 [Lifirafenib]
relative viability
Conditions | HT1080 | KHOS-240S | RD-ES | SW982 | SW1353
0.00017 µM | 1.09 ± 0.018 | 1.068 ± 0.01 | 0.9742 ± 0.0083 | 1.04 ± 0.051 | 0.989 ± 0.036
0.00051 µM | 1.05 ± 0.019 | 1.07 ± 0.022 | 0.997 ± 0.016 | 1.03 ± 0.027 | 0.95 ± 0.045
0.00152 µM | 1.046 ± 0.0038 | 1.06 ± 0.02 | 0.98 ± 0.022 | 1.055 ± 0.0083 | 0.989 ± 0.028
0.00457 µM | 1.08 ± 0.012 | 1.08 ± 0.034 | 0.991 ± 0.039 | 1.05 ± 0.019 | 1.01 ± 0.047
0.01372 µM | 1.07 ± 0.067 | 1.06 ± 0.033 | 1 ± 0.015 | 1.02 ± 0.058 | 1.06 ± 0.038
0.04115 µM | 1.11 ± 0.045 | 1.06 ± 0.031 | 0.981 ± 0.036 | 1.02 ± 0.028 | 1.06 ± 0.06
0.1235 µM | 1.09 ± 0.014 | 1.06 ± 0.033 | 0.992 ± 0.041 | 1.05 ± 0.051 | 1.06 ± 0.045
0.3704 µM | 1.09 ± 0.07 | 1.03 ± 0.046 | 1.04 ± 0.014 | 1.03 ± 0.036 | 1.08 ± 0.018
1.111 µM | 1.04 ± 0.052 | 0.967 ± 0.037 | 1.02 ± 0.011 | 0.897 ± 0.096 | 1.03 ± 0.024
3.333 µM | 0.9439 ± 0.0047 | 0.792 ± 0.02 | 0.954 ± 0.025 | 0.757 ± 0.092 | 0.861 ± 0.033
10 µM | 0.491 ± 0.046 | 0.547 ± 0.048 | 0.822 ± 0.044 | 0.556 ± 0.066 | 0.545 ± 0.016

O=C(c1ccc(F)c(F)c1Nc1ccc(I)cc1F)N1CC(O)([C@@H]2CCCCN2)C1 [Cobimetinib]
relative viability
Conditions | HT1080 | KHOS-240S | RD-ES | SW982 | SW1353
0.00017 µM | 1.07 ± 0.015 | 1.07 ± 0.047 | 0.999 ± 0.026 | 1.04 ± 0.022 | 0.989 ± 0.018
0.00051 µM | 1.087 ± 0.0045 | 1.07 ± 0.039 | 1.02 ± 0.015 | 1.02 ± 0.033 | 0.983 ± 0.028
0.00152 µM | 1.067 ± 0.0094 | 1.09 ± 0.044 | 0.985 ± 0.022 | 1 ± 0.012 | 1 ± 0.018
0.00457 µM | 1.049 ± 0.01 | 1.05 ± 0.034 | 0.986 ± 0.02 | 1.01 ± 0.023 | 0.979 ± 0.033
0.01372 µM | 1.06 ± 0.021 | 1.03 ± 0.042 | 0.945 ± 0.015 | 0.98 ± 0.022 | 0.899 ± 0.05
0.04115 µM | 0.876 ± 0.028 | 0.936 ± 0.027 | 0.979 ± 0.019 | 0.942 ± 0.029 | 0.838 ± 0.059
0.1235 µM | 0.586 ± 0.032 | 0.79 ± 0.037 | 0.955 ± 0.018 | 0.878 ± 0.023 | 0.778 ± 0.027
0.3704 µM | 0.4917 ± 0.0027 | 0.709 ± 0.047 | 0.982 ± 0.011 | 0.804 ± 0.021 | 0.704 ± 0.042
1.111 µM | 0.39 ± 0.019 | 0.669 ± 0.09 | 0.974 ± 0.016 | 0.765 ± 0.056 | 0.669 ± 0.036
3.333 µM | 0.247 ± 0.022 | 0.549 ± 0.11 | 0.91 ± 0.056 | 0.578 ± 0.015 | 0.617 ± 0.051
10 µM | 0.0054 ± 0.00072 | 0.0497 ± 0.021 | 0.0147 ± 0.0016 | 0.0118 ± 0.00025 | 0.0141 ± 0.0011

Cc1c2oc3c(C)ccc(C(=O)N[C@@H]4C(=O)N[C@H](C(C)C)C(=O)N5CCC[C@H]5C(=O)N(C)CC(=O)N(C)[C@@H](C(C)C)C(=O)O[C@@H]4C)c3nc-2c(C(=O)N[C@@H]2C(=O)N[C@H](C(C)C)C(=O)N3CCC[C@H]3C(=O)N(C)CC(=O)N(C)[C@@H](C(C)C)C(=O)O[C@@H]2C)c(N)c1=O [Dactinomycin]
relative viability
Conditions | HT1080 | KHOS-240S | RD-ES | SW982 | SW1353
0.00017 µM | 1.02 ± 0.021 | 1.04 ± 0.018 | 1 ± 0.019 | 1.06 ± 0.03 | 0.971 ± 0.041
0.00051 µM | 1.04 ± 0.017 | 1.06 ± 0.054 | 0.973 ± 0.021 | 1.02 ± 0.063 | 0.946 ± 0.048
0.00152 µM | 0.9913 ± 0.0077 | 0.864 ± 0.051 | 0.943 ± 0.021 | 0.858 ± 0.024 | 0.834 ± 0.02
0.00457 µM | 0.712 ± 0.2 | 0.73 ± 0.041 | 0.88 ± 0.03 | 0.563 ± 0.0058 | 0.71 ± 0.022
0.01372 µM | 0.553 ± 0.2 | 0.499 ± 0.036 | 0.621 ± 0.011 | 0.382 ± 0.024 | 0.62 ± 0.053
0.04115 µM | 0.391 ± 0.12 | 0.202 ± 0.0067 | 0.0824 ± 0.0062 | 0.234 ± 0.021 | 0.272 ± 0.017
0.1235 µM | 0.185 ± 0.011 | 0.0803 ± 0.054 | 0.00823 ± 0.0017 | 0.15 ± 0.011 | 0.242 ± 0.01
0.3704 µM | 0.171 ± 0.0055 | 0.0989 ± 0.008 | -0.00353 ± 0.00035 | 0.167 ± 0.0057 | 0.215 ± 0.021
1.111 µM | 0.137 ± 0.0066 | 0.0816 ± 0.014 | -0.00503 ± 0.00021 | 0.147 ± 0.0063 | 0.183 ± 0.008
3.333 µM | 0.128 ± 0.011 | 0.0805 ± 0.013 | -0.00297 ± 0.00075 | 0.142 ± 0.016 | 0.15 ± 0.0098
10 µM | 0.129 ± 0.003 | 0.0884 ± 0.011 | 0.00427 ± 0.00047 | 0.147 ± 0.0064 | 0.1334 ± 0.00091

Cc1[nH]c(/C=C2\C(=O)Nc3ccccc32)c(C)c1CCC(=O)O [Orantinib]
relative viability
Conditions | HT1080 | KHOS-240S | RD-ES | SW982 | SW1353
0.00017 µM | 1.09 ± 0.059 | 1.04 ± 0.025 | 1.02 ± 0.017 | 1.06 ± 0.023 | 1.08 ± 0.017
0.00051 µM | 1.1 ± 0.033 | 1.07 ± 0.034 | 0.9951 ± 0.0033 | 1.11 ± 0.038 | 1.06 ± 0.038
0.00152 µM | 1.13 ± 0.044 | 1.087 ± 0.0054 | 1.01 ± 0.015 | 1.1 ± 0.016 | 1.087 ± 0.006
0.00457 µM | 1.11 ± 0.024 | 1.06 ± 0.055 | 1.03 ± 0.031 | 1.1 ± 0.045 | 1.08 ± 0.019
0.01372 µM | 1.08 ± 0.029 | 1.05 ± 0.029 | 1.03 ± 0.026 | 1.09 ± 0.046 | 1.05 ± 0.012
0.04115 µM | 1.07 ± 0.053 | 1.065 ± 0.01 | 1.02 ± 0.034 | 1.1 ± 0.028 | 1.07 ± 0.035
0.1235 µM | 1.11 ± 0.033 | 1.08 ± 0.045 | 1.01 ± 0.044 | 1.08 ± 0.031 | 1.04 ± 0.019
0.3704 µM | 1.09 ± 0.043 | 1.09 ± 0.024 | 1 ± 0.025 | 1.044 ± 0.0096 | 1.026 ± 0.0026
1.111 µM | 1.05 ± 0.022 | 1.03 ± 0.021 | 0.977 ± 0.032 | 1.01 ± 0.043 | 1 ± 0.014
3.333 µM | 0.991 ± 0.031 | 1.06 ± 0.028 | 0.983 ± 0.019 | 0.935 ± 0.055 | 0.963 ± 0.054
10 µM | 0.947 ± 0.065 | 0.963 ± 0.012 | 0.932 ± 0.031 | 0.931 ± 0.025 | 0.951 ± 0.061

Cc1cc2c(F)c(Oc3ncnn4cc(OC[C@@H](C)OC(=O)[C@H](C)N)c(C)c34)ccc2[nH]1 [Brivanib_alaninate]
relative viability
Conditions | HT1080 | KHOS-240S | RD-ES | SW982 | SW1353
0.00017 µM | 1.05 ± 0.011 | 1.016 ± 0.01 | 0.953 ± 0.022 | 1.05 ± 0.028 | 0.949 ± 0.022
0.00051 µM | 1.04 ± 0.016 | 1.04 ± 0.027 | 0.9804 ± 0.0097 | 1.03 ± 0.034 | 0.952 ± 0.033
0.00152 µM | 1.06 ± 0.028 | 1.03 ± 0.013 | 0.983 ± 0.025 | 1.04 ± 0.013 | 0.999 ± 0.021
0.00457 µM | 1.03 ± 0.013 | 1.04 ± 0.033 | 0.983 ± 0.018 | 1.04 ± 0.065 | 0.928 ± 0.059
0.01372 µM | 1.04 ± 0.013 | 1.052 ± 0.009 | 0.996 ± 0.014 | 1.05 ± 0.047 | 0.97 ± 0.046
0.04115 µM | 1.03 ± 0.032 | 1.03 ± 0.013 | 0.989 ± 0.023 | 1.05 ± 0.078 | 0.963 ± 0.028
0.1235 µM | 1.04 ± 0.032 | 1.03 ± 0.018 | 0.962 ± 0.021 | 1.06 ± 0.02 | 0.94 ± 0.042
0.3704 µM | 1.054 ± 0.0074 | 1.04 ± 0.014 | 1 ± 0.048 | 1.04 ± 0.029 | 0.958 ± 0.013
1.111 µM | 1.047 ± 0.0084 | 1.007 ± 0.0074 | 0.987 ± 0.056 | 1.09 ± 0.015 | 0.97 ± 0.015
3.333 µM | 0.99 ± 0.018 | 0.93 ± 0.029 | 0.9601 ± 0.0059 | 1.08 ± 0.04 | 0.984 ± 0.031
10 µM | 0.978 ± 0.0099 | 0.738 ± 0.019 | 0.926 ± 0.068 | 1.12 ± 0.024 | 0.977 ± 0.022
